We go through 53 compounds from ChEMBL document CHEMBL1128771 (Bioorg Med Chem Lett, 1995).

Assay [1] deals with Dihydroorotate dehydrogenase (quinone), mitochondrial (Homo sapiens, UniProt Q02127).
Description: Inhibition measurement of orotate formation from radiolabeled dihydroorotate, using partially purified DHODase isolated from human liver.
Assay [2] is described as follows: Ability to inhibit proliferation in human lymphocytes by mixed lymphocyte reaction (MLR). The format is functional, cell-based.

Dihydroorotate dehydrogenase (quinone), mitochondrial, sequence (Q02127 whole entry): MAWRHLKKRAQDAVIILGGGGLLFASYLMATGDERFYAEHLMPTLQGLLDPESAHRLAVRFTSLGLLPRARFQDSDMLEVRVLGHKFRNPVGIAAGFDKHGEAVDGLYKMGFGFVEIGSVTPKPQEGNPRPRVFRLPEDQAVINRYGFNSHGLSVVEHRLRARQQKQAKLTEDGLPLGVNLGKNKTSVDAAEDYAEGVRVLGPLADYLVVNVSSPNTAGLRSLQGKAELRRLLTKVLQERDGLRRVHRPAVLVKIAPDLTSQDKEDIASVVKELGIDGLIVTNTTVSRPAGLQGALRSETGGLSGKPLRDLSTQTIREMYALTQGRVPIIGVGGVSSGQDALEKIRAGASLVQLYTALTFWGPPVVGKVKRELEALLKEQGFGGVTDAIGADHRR

As to `Cc1c(-c2ccc(-n3ccnc3)cc2)nc2ccc(F)cc2c1C(=O)O`, in assay [1], the Ki – broadly, a dissociation constant, usually derived from enzyme kinetics or from competition with a known ligand – was greater than 0.5 µM. Also, the 50% inhibitory concentration (IC50) (as a rule, the concentration that gives 50% inhibition) in assay [2] (Homo sapiens) was greater than 0.5 µM.

In turn, `CC(=O)OCc1c(C)c(-c2ccc(-c3ccccc3)cc2)nc2ccc(F)cc12` yielded a Ki in assay [1] greater than 0.5 µM. In addition, in assay [2] (Homo sapiens), the IC50 is greater than 0.5 µM.

`Cc1c(-c2ccc(-c3ccccc3)s2)nc2ccc(F)cc2c1C(=O)O` registered an inhibition constant (Ki) in assay [1] of 0.39 µM. For the same compound, the IC50 in assay [2] (Homo sapiens) was greater than 0.5 µM.

The compound `Cn1cnc2c(C(=O)O)cc(-c3ccc(-c4ccccc4)cc3)nc21` showed a Ki in assay [1] greater than 0.5 µM. This compound showed a concentration for half-maximal inhibition (IC50) in assay [2] (Homo sapiens) greater than 0.5 µM.

The compound `Cc1c(-c2ccc(-c3ccccc3F)cc2)nc2ncccc2c1C(=O)O` yielded a Ki in assay [1] of 0.21 µM. This compound gave an IC50 in assay [2] (Homo sapiens) greater than 0.5 µM.

`O=C(O)c1c2c(nc3ccc(F)cc13)-c1ccc(-c3ccccc3)cc1CC2` returned an inhibitory constant (Ki) in assay [1] of 0.017 µM. Half-maximal inhibition in assay [2] (Homo sapiens) (IC50) was put at 0.014 µM.

Take `Cc1c(-c2ccc3ccccc3c2)nc2ccc(F)cc2c1C(=O)O`: the inhibition constant Ki in assay [1] stood at 0.3 µM. In assay [2] (Homo sapiens), this compound registered an IC50 greater than 0.5 µM.

Regarding `Cc1c(-c2ccc(-c3ccccc3F)cc2)nc2cccnc2c1C(=O)O`, in assay [1], affinity was put at a Ki of 0.5 µM. Also, in assay [2] (Homo sapiens), the concentration for half-maximal inhibition (IC50) was greater than 0.5 µM.

In assay [1], `Cc1c(-c2cccc(Oc3ccccc3)c2)nc2ccc(F)cc2c1C(=O)O` displayed an inhibition constant (Ki) of 0.063 µM. Further, the IC50 in assay [2] (Homo sapiens) is greater than 0.5 µM.

For the compound `Cc1ccc2nc(-c3ccc(-c4ccccc4)cc3)c(C)c(C(=O)O)c2c1`, in assay [1], the affinity, expressed as Ki, was 0.01 µM. The same compound returned a 50% inhibitory concentration (IC50) in assay [2] (Homo sapiens) of 0.38 µM.

For the compound `Cc1c(-c2ccc(-c3ccccc3)cc2)nc2ccc(F)cc2c1C(N)=O`, in assay [1], the Ki was greater than 0.5 µM. This compound also gave a concentration for half-maximal inhibition (IC50) in assay [2] (Homo sapiens) greater than 0.5 µM.

Compound `CCc1c(-c2ccc(-c3ccccc3)cc2)nc2ccc(F)cc2c1C(=O)O` registered a Ki in assay [1] of 0.03 µM. The same compound showed a concentration for half-maximal inhibition (IC50) in assay [2] (Homo sapiens) of 0.21 µM.

`CCCCCCc1ccc(-c2nc3ccc(F)cc3c(C(=O)O)c2C)cc1` gave an inhibition constant Ki in assay [1] of 0.06 µM. The compound further showed an IC50 in assay [2] (Homo sapiens) greater than 0.5 µM.

As to `Cc1c(-c2ccc(-c3ccc(Br)cc3)cc2)nc2ccc(F)cc2c1C(=O)O`, the Ki in assay [1] was 0.038 µM. For the same compound, in assay [2] (Homo sapiens), the IC50 was greater than 0.5 µM.

Regarding `Cc1ccc(-c2ccc(-c3nc4ccc(F)cc4c(C(=O)O)c3C)cc2)cc1`, in assay [1], the Ki worked out at 0.024 µM. In assay [2] (Homo sapiens), this compound showed an IC50 of 0.15 µM.

On to `COC(=O)c1c(C)c(-c2ccc(-c3ccccc3)cc2)nc2ccc(F)cc12`, for which, in assay [1], the inhibition constant (Ki) stood at 0.4 µM. In assay [2] (Homo sapiens), this compound came in with an IC50 greater than 0.5 µM.

Take `Cc1c(-c2ccc(-c3ccc(C(F)(F)F)cc3)cc2)nc2ccc(F)cc2c1C(=O)O`: the inhibition constant Ki in assay [1] turned out to be 0.23 µM. Moreover, the IC50 in assay [2] (Homo sapiens) was greater than 0.5 µM.

Consider `Cc1c(-c2ccc(Oc3ccccc3)cc2)nc2ccc(F)cc2c1C(=O)O`, for which the affinity in assay [1], expressed as Ki, was 0.029 µM. This compound gave an IC50 in assay [2] (Homo sapiens) of 0.5 µM.

`CC(=O)Nc1ccc2nc(-c3ccc(-c4ccccc4)cc3)c(C)c(C(=O)O)c2c1` yielded an inhibition constant Ki in assay [1] greater than 0.5 µM. In addition, in assay [2] (Homo sapiens), the concentration for half-maximal inhibition (IC50) was greater than 0.5 µM.

As for `Cc1c(-c2ccc(-c3ccc(Cl)cc3)cc2)nc2ccc(F)cc2c1C(=O)O`, in assay [1], affinity was put at a Ki of 0.14 µM. The compound also displayed an IC50 in assay [2] (Homo sapiens) greater than 0.5 µM.

The compound `O=C(O)c1cc(-c2ccc(-c3ccccc3)cc2)nc2sccc12` registered an inhibitory constant (Ki) in assay [1] of 0.21 µM. This compound also showed an IC50 in assay [2] (Homo sapiens) greater than 0.5 µM.

The compound `Cc1c(-c2ccc(-c3ccccc3)cc2)nc2ccc(C(F)(F)F)cc2c1C(=O)O` returned an inhibitory constant (Ki) in assay [1] of 0.0084 µM. Also, in assay [2] (Homo sapiens), the IC50 was found to be 0.007 µM.

On to `O=C(O)c1cc(-c2ccc(-c3ccccc3)cc2)nc2ocnc12`, for which the Ki in assay [1] was greater than 0.5 µM. For the same compound, the IC50 in assay [2] (Homo sapiens) was greater than 0.5 µM.

With `Cc1c(-c2ccc(-c3ccccc3)cc2)nc2ccc(F)cc2c1-n1cnnn1`, in assay [1], the Ki is greater than 0.5 µM. Besides, the IC50 in assay [2] (Homo sapiens) was greater than 0.5 µM.

In assay [1], `Cc1c(-c2ccc(-c3cccc(F)c3)cc2)nc2ccc(F)cc2c1C(=O)O` displayed an inhibition constant (Ki) of 0.05 µM. In assay [2] (Homo sapiens), this compound showed an IC50 of 0.02 µM.

In the case of `Cc1c(-c2ccc(-c3ccccc3)cc2)nc2ccc(Cl)cc2c1C(=O)O`, the affinity in assay [1] corresponds to a Ki of 0.02 µM. The same compound displayed an IC50 in assay [2] (Homo sapiens) of 0.035 µM.

On to `COC(=O)c1ccc2nc(-c3ccc(-c4ccccc4)cc3)c(C)c(C(=O)O)c2c1`, for which the inhibitory constant (Ki) in assay [1] is greater than 0.5 µM. In addition, in assay [2] (Homo sapiens), the concentration for half-maximal inhibition (IC50) was greater than 0.5 µM.

Compound `Cc1c(-c2ccc(-c3ccccc3)cc2)nc2ccc(F)cc2c1CO` yielded an inhibition constant Ki in assay [1] greater than 0.5 µM. This compound also gave an IC50 in assay [2] (Homo sapiens) greater than 0.5 µM.

On to `Cc1c(-c2ccc(-c3cccnc3)cc2)nc2ccc(F)cc2c1C(=O)O`, for which the inhibition constant (Ki) in assay [1] came out at 0.2 µM. Also, the half-maximal inhibitory concentration (IC50) in assay [2] (Homo sapiens) was greater than 0.5 µM.

For `O=C(O)c1cc(-c2ccc(-c3ccccc3)cc2)nc2ccc(F)cc12`, the inhibition constant (Ki) in assay [1] is 0.01 µM. The IC50 in assay [2] (Homo sapiens) came to 0.15 µM.

On to `Cc1c(CCCCc2ccccc2)nc2ccc(F)cc2c1C(=O)O`, for which, in assay [1], the Ki is greater than 0.5 µM. Besides, the half-maximal inhibitory concentration (IC50) in assay [2] (Homo sapiens) was greater than 0.5 µM.

The compound `Cc1c(-c2ccc(-c3ccc(F)cc3)cc2)nc2ccc(F)cc2c1C(=O)O` displayed a Ki in assay [1] of 0.21 µM. In addition, the IC50 in assay [2] (Homo sapiens) is 0.26 µM.

The compound `Cc1c(-c2ccc(-c3ccccc3)cc2)nc2ccc(F)cc2c1O` gave a Ki in assay [1] greater than 0.5 µM. Besides, in assay [2] (Homo sapiens), the 50% inhibitory concentration (IC50) is greater than 0.5 µM.

Consider `Cc1c(-c2ccc(-c3ccccc3F)cc2)nc2ccncc2c1C(=O)O`, for which the affinity in assay [1] corresponds to a Ki of 0.42 µM. In assay [2] (Homo sapiens), the half-maximal inhibitory concentration (IC50) is greater than 0.5 µM.

For `Cc1c(-c2ccc(C3CCCCC3)cc2)nc2ccc(F)cc2c1C(=O)O`, the inhibitory constant (Ki) in assay [1] is 0.028 µM. The compound further showed an IC50 in assay [2] (Homo sapiens) of 0.025 µM.

On to `Cc1c(-c2cccc(-c3ccccc3)c2)nc2ccc(F)cc2c1C(=O)O`, for which the Ki in assay [1] was greater than 0.5 µM. The concentration for half-maximal inhibition (IC50) in assay [2] (Homo sapiens) is greater than 0.5 µM.

In assay [2], `Cc1c(-c2ccc(-c3ccccc3)cc2)nc2ccccc2c1C(=O)O` displayed a 50% inhibitory concentration (IC50) of 0.18 µM.

`CSc1c(-c2ccc(-c3ccccc3)cc2)nc2ccc(F)cc2c1C(=O)O`: the Ki in assay [1] came out at 0.013 µM. Also, in assay [2] (Homo sapiens), the IC50 is 0.018 µM.

As to `Cc1c(-c2ccc(-c3ccccc3F)cc2)nc2cnccc2c1C(=O)O`, the Ki in assay [1] stood at 0.048 µM. The half-maximal inhibitory concentration (IC50) in assay [2] (Homo sapiens) worked out at 0.29 µM.

For `COc1c(-c2ccc(-c3ccccc3)cc2)nc2ccc(F)cc2c1C(=O)O`, in assay [1], the affinity, expressed as Ki, was 0.013 µM. This compound had an IC50 in assay [2] (Homo sapiens) of 0.25 µM.

For `Cc1c(-c2ccc(-c3ccccc3)cc2)nc2c(Cl)cccc2c1C(=O)O`, in assay [1], the affinity corresponds to a Ki of 0.15 µM. In assay [2] (Homo sapiens), the half-inhibitory concentration (IC50) was greater than 0.5 µM.

In turn, `Cc1c(-c2ccc(-c3ccccc3)cc2)nc2cc(Cl)ccc2c1C(=O)O` gave an inhibitory constant (Ki) in assay [1] of 0.22 µM. In addition, the IC50 in assay [2] (Homo sapiens) is greater than 0.5 µM.

For the compound `Cc1c(-c2ccc(-c3ccccc3)cc2)nc2cccc(Cl)c2c1C(=O)O`, the Ki in assay [1] is 0.025 µM. The same compound showed an IC50 in assay [2] (Homo sapiens) of 0.15 µM.

Compound `Cc1c(-c2ccc(C(C)(C)C)cc2)nc2ccc(F)cc2c1C(=O)O` came in with a Ki in assay [1] of 0.04 µM. Moreover, in assay [2] (Homo sapiens), half-maximal inhibition (IC50) required 0.4 µM.

For `O=C(O)c1c(O)c(-c2ccc(-c3ccccc3)cc2)nc2ccc(F)cc12`, the IC50 in assay [2] (Homo sapiens) was greater than 0.5 µM.

`Cc1c(-c2ccc(-c3cccs3)cc2)nc2ccc(F)cc2c1C(=O)O` registered an inhibitory constant (Ki) in assay [1] of 0.056 µM. In assay [2] (Homo sapiens), half-maximal inhibition (IC50) was put at 0.35 µM.

Take `Cc1c(-c2ccc(-c3ccccc3)cc2)nc2ccc(O)cc2c1C(=O)O`: the Ki in assay [1] is greater than 0.5 µM. In assay [2] (Homo sapiens), this compound returned an IC50 greater than 0.5 µM.

In assay [1], `CSc1ccc2nc(-c3ccc(-c4ccccc4)cc3)c(C)c(C(=O)O)c2c1` had an inhibition constant (Ki) of 0.27 µM. The compound also gave an IC50 in assay [2] (Homo sapiens) greater than 0.5 µM.

Regarding `Cc1c(-c2ccccc2)nc2ccc(F)cc2c1C(=O)O`, in assay [1], the Ki is greater than 0.5 µM. Also, the IC50 in assay [2] (Homo sapiens) is greater than 0.5 µM.

Compound `Cc1c(-c2cccc3ccccc23)nc2ccc(F)cc2c1C(=O)O` had a Ki in assay [1] greater than 0.5 µM. In assay [2] (Homo sapiens), this compound yielded an IC50 greater than 0.5 µM.

In turn, `Cc1c(-c2ccc(-c3ccc(O)cc3F)cc2)nc2ccc(F)cc2c1C(=O)O` displayed an inhibitory constant (Ki) in assay [1] of 0.011 µM. For the same compound, the half-inhibitory concentration (IC50) in assay [2] (Homo sapiens) is 0.3 µM.

`Cc1c(-c2ccc(-c3ccccc3F)cc2)nc2nc[nH]c2c1C(=O)O` displayed an inhibition constant Ki in assay [1] greater than 0.5 µM. Moreover, in assay [2] (Homo sapiens), the IC50 is greater than 0.5 µM.

The compound `Cc1c(-c2ccc(-c3ccccc3F)cc2)nc2ccc(F)cc2c1C(=O)O` [BREQUINAR] showed a half-maximal inhibitory concentration (IC50) in assay [2] of 0.015 µM.
